{"source": "patent US10376476B2", "about": "“Panicein compounds, compositions and uses thereof” (CENTRE NATIONAL DE LA RECHERCHE SCIENTIFIQUE, priority 2014, dated 2019)", "key": {"melanoma cells": {"test_system": "melanoma cells", "assay": "Apoptosis by AnnexinV and DAPI co-staining", "assay_type": "cell-based, human", "method": "Cells were sampled after 24 h treatment with DMSO, paniceins and/or dxr, and apoptosis determined via AnnexinV and DAPI co-staining. Cells in early apoptosis are AnnexinV positive and DAPI negative, and cells in late apoptosis are AnnexinV and DAPI double positive. Histograms represent the mean percentage (+/−SEM) of cells in late apoptosis from three independent experiments and were analyzed using the Student t-test in which significance is attained at P<0.05 (*) (**: P<0.005)."}, "[1]": {"test_system": "Patched protein in MEWO and A375 cells", "assay": "Western blotting of Patched after panicein treatment", "assay_type": "cell-based, human", "conditions": "24 hours, 10 μM", "method": "Western-blotting on total extracts from MEWO and A375 cells after 24 h treatment with 10 μM of panicein A hydroquinone (P5) or with DMSO.\nTotal extracts from melanoma cells were prepared. Samples were separated on 8% SDS-PAGE and transferred to nitrocellulose membranes (Amersham) using standard techniques. After 1 hour at room temperature in blocking buffer (20 mmol/L Tris-HCl pH 7.5, 450 mmol/L NaCl, 0.1% Tween-20, and 4% non-fat milk), nitrocellulose membranes were incubated overnight at 4° C. with rabbit anti-Patched antiserum (Ab130.6 1:1000 generous gift from M. Ruat or Ab39266 from Abcam 1/1000) and monoclonal mouse anti-βtubulin antibody (Sigma; 1/1000). After 3 washes, membranes were incubated 45 min with anti-mouse (1:5000) or anti-rabbit (1:3000) immunoglobulin coupled to horseradish peroxidase (Dako). Detection was carried out with an ECL kit (Millipore) on a Las3000 (Fuji)."}, "A375 cells": {"test_system": "A375 cells", "assay": "Doxorubicin efflux from melanoma cells (intracellular dxr fluorescence)", "assay_type": "cell-based, human", "conditions": "A375, loaded with 10 μM dxr, 10 μM compound, 30 min efflux", "method": "(§1) A. Compound P5 inhibits doxorubicin efflux from melanoma cells MeWo and A375. Cells were grown on cover-slips, incubated for 2 hour at 37° C. with 10 μM doxorubicin and quickly rinsed with phosphate buffer (pH 7.4). One cover-slip of each cell line was immediately fixed for doxorubicin charge control. The other cover-slips were incubated with buffer supplemented with DMSO or 10 μM of compound P5 30 min under gentle shaking and immediately fixed. Dxr intracellular fluorescence was visualized by epifluorescence and analyzed using Image J software on more than 30 cells of 3 different fields for each condition. The results were analyzed using the Student t test in which significance is attained at P<0.05 (**: P<0.005, ***: P<0.0005). […] Dxr intracellular fluorescence quantification was carried out using Image J software on more than 30 yeasts on 3 different fields for each condition. The results were analyzed using the Student t test in which significance is attained at P<0.05 (*).\n(§2) On melanoma cells: For doxorubicin incorporation in melanoma cells, the protocol was adapted from Bidet et al. (2012). […] Quantification of doxorubicin intracellular fluorescence was carried out using Image J software on more than 30 cells of 3 different fields for each condition. The results were analyzed using the Student t test in which significance is attained at P<0.05."}, "MeWo cells": {"test_system": "MeWo cells", "assay": "Doxorubicin efflux from melanoma cells (intracellular dxr fluorescence)", "assay_type": "cell-based, human", "conditions": "loaded with 10 μM dxr, 10 μM compound, 30 min efflux", "method": "as §1, §2"}, "keratinocytes HaCaT": {"test_system": "keratinocytes HaCaT", "assay": "Doxorubicin efflux from cells (intracellular dxr fluorescence)", "assay_type": "cell-based"}, "A375 melanoma cells": {"test_system": "A375 melanoma cells", "assay": "Vemurafenib cytotoxicity, viability test using neutral red", "assay_type": "cell-based, human", "conditions": "A375, 10 μM panicein A hydroquinone"}}}
{"smiles": "COc1cc(C)c(CC/C(C)=C/Cc2cc(O)ccc2O)c(C)c1C", "note": "[P5, Panicein A hydroquinone]", "values": [{"measurement": "early apoptosis (Annexin V and DAPI labeling)", "setting": "melanoma cells; 24 h treatment with paniceins and/or dxr", "value": "increases early apoptosis"}, {"measurement": "number of apoptotic melanoma cells", "setting": "melanoma cells; 24 h treatment, AnnexinV and DAPI co-staining", "value": "strongly increases"}, {"measurement": "effect on Patched expression or degradation", "setting": "[1]", "value": "no effect"}, {"measurement": "increase of dxr in cells (dxr fluorescence intensity) after efflux", "setting": "A375 cells", "value": "about 25%"}, {"measurement": "increase of dxr in cells (dxr fluorescence intensity) after efflux", "setting": "MeWo cells", "value": "about 25%"}, {"measurement": "increase of dxr in cells (dxr fluorescence intensity) after efflux", "setting": "keratinocytes HaCaT", "value": "contrary to “healthy” keratinocytes HaCaT"}, {"measurement": "increase of vemurafenib cytotoxicity", "setting": "A375 melanoma cells", "value": "strongly increases"}]}
